Drawing on ChEMBL document CHEMBL1147515, “Nickel(II) and cobalt(II) complexes of hydroxyl-substituted triazamacrocyclic ligand as potential antitumor agents” (2004), this text covers Inhibition and inhibition for three molecules.

The term Inhibition denotes how much of the control response was suppressed. By inhibition is commonly meant the percentage by which the read-out fell short of the control.

The test system of test [1] is Bel-7402. Kind of test: Percentage of growth inhibition of BEL-7402 cells treated for 48 hr at 10E-3 M/L and incubated with 5 g/L MTT for 4 h. The settings on record: for inhibition: Homo sapiens. The format is functional, Homo sapiens.
Test [2] relates to Bel-7402. Kind of test: Percentage of growth inhibition of BEL-7402 cells treated for 48 hr at 10E-4 M/L and incubated with 5 g/L MTT for 4 h. The settings on record: for inhibition: Homo sapiens. The format is functional, Homo sapiens.
Test [3] has as its system HXO-RB44 cell line. Kind of test: Percentage of growth inhibition of HXO-RB44 cells treated for 48 hr at 10E-4 M/L and incubated with 5 g/L MTT for 4 h. The following applies: for inhibition: Homo sapiens. It counts as functional, Homo sapiens.
In test [4] the test system is HXO-RB44 cell line. Briefly: Percentage of growth inhibition of HXO-RB44 cells treated for 48 hr at 10E-5 M/L and incubated with 5 g/L MTT for 4 h. It counts as functional, Homo sapiens. The following applies: for inhibition: Homo sapiens.
In test [5] the test system is HXO-RB44 cell line. Kind of test: Percentage of growth inhibition of HXO-RB44 cells treated for 48 hr at 10E-6 M/L and incubated with 5 g/L MTT for 4 h. It counts as functional, Homo sapiens. The settings on record: for inhibition: Homo sapiens.
Test [6] has as its system Bel-7402. Briefly: Percentage of growth inhibition of BEL-7402 cells treated for 48 hr at 10E-5 M/L and incubated with 5 g/L MTT for 4 h. The format is functional, cell-based. The following applies: Homo sapiens.

Take `OC1CNCCNCCNC1`: the Inhibition in test [1] is 34%; in test [2] it was 16%; in test [3] it was 3%; in test [4] it was 3%; in test [5], 1%.
In the case of COBALT (II) ION, the inhibition came to 79% in test [1]; 5% in test [2]; 0% in test [6]; 7% in test [3]; 3% in test [4]; 3% in test [5].
As for COPPER, the inhibition in test [1] was 81%; in test [2], 3%; in test [6], 2%; in test [3], 5%; in test [4] it was 3%; in test [5], 0%.
